What all share (format): cell-based
The test system of one assay is Klebsiella KP 342. Put plainly: General MIC protocol, Gram negative. Conditions: KP342; Klebsiella KP 342; read-out: MIC. The protocol:
(§1) General Minimum Inhibitory Concentration (MIC) Protocol
(§2) 1. Grow up cultures of bacterial strains to be tested overnight.
(§3) 2. Dilute down overnight cultures to concentration of 1×10^6 bacteria/ml (OD0.01) in Tryptic soy broth (TSB).
(§4) 3. Add 100 μl of TSB media to column 2-column 12 in 96 well plate (keeping column 1 clear).
(§5) 4. Make up compound to a concentration of 64 μg/ml in water (or alternatively to twice the chosen maximum concentration to be tested).
(§6) 5. Add 100 μl of antibiotic solution to the 1st and 2nd columns.
(§7) 6. Using a multichannel pipette take 100 μl from the 2nd column wells and pipette into 3rd column wells and repeat down the 96 well plate (remembering to include controls i.e. uninfected media and media with no antibiotic).
(§8) 7. To each well (except uninfected control row H) add 100 μl of bacterially infected media at a concentration of 1×10^6/ml.
(§9) 8. This dilutes down the concentration of the antibiotic by half (top dose is therefore 32 μg/ml in column 1) and also gives you a starting bacterial concentration of 5×10^5/ml.
(§10) 9. Wrap plate with parafilm to prevent evaporation.
(§11) 10. Leave at desired temperature (37° C. unless specified elsewhere) for 20 hours.
(§12) 11. Next day check plates for growth and measure optical density (i.e. absorbance) at a wavelength of 600 nm (OD600).
(§13) An example of such a plate is shown in FIG. 1 where column A represents wells that receive the top dose 100 μl; column B represents wells that receive the top dose 100 μl+100 μl TSB; and column C represents wells that receive 100 μl TSB. Row H which is marked by a box labelled D represents a blank where the cells receive no bacteria.
The minimum inhibitory concentration (MIC) was measured using the general MIC protocol given above.

The test system of a further assay is Psueudomonas GH12. The experiment in a line: General MIC protocol, Gram negative. Conditions: Pseudomonas. On the procedure:
as §1, §2, §3, §4, §5, §6, §7, §8, §9, §10, §11, §12, §13
The activity of the compound designated PP-A148 was tested against an extended panel of Klebsiella and Pseudomonas Gram-negative bacterial strains that have proven drug resistant difficult to treat. […] The minimum inhibitory concentration (MIC) was measured using the general MIC protocol given above.

The next assay relates to K. pneumonia NCTC 51851. The experiment in a line: General MIC protocol, Gram negative. As to conditions: Klebsiella pneumoniae, NCTC51851; K. pneumonia NCTC 51851; read-out: MIC. On the procedure: as §1, §2, §3, §4, §5, §6, §7, §8, §9, §10, §11, §12, §13
The subject of another assay is K. pneumonia KP16. Put plainly: General MIC protocol, Gram negative. As to conditions: Klebsiella pneumoniae; K. pneumonia KP16; read-out: MIC. The protocol:
as §1, §2, §3, §4, §5, §6, §7, §8, §9, §10, §11, §12, §13

The next assay concerns P. aeruginosa PA01. Put plainly: General MIC protocol, Gram negative. Conditions: Pseudomonas aeruginosa. The protocol:
as §1, §2, §3, §4, §5, §6, §7, §8, §9, §10, §11, §12, §13

In a further assay the test system is K. pneumonia NCTC 13443. The experiment in a line: General MIC protocol, Gram negative. Conditions: Klebsiella pneumoniae, NCTC13443; K. pneumonia NCTC 13443; read-out: MIC. The protocol: as §1, §2, §3, §4, §5, §6, §7, §8, §9, §10, §11, §12, §13
For another assay, the system named is K. pneumonia MGH 78578. The experiment in a line: General MIC protocol, Gram negative. Conditions: Klebsiella pneumoniae, MGH78578; K. pneumonia MGH 78578; read-out: MIC. On the procedure: as §1, §2, §3, §4, §5, §6, §7, §8, §9, §10, §11, §12, §13
In the next assay the test system is K. pneumonia NCTC 13438. The experiment in a line: General MIC protocol, Gram negative. As to conditions: Klebsiella pneumoniae, NCTC13438; K. pneumonia NCTC 13438; read-out: MIC. The protocol:
as §1, §2, §3, §4, §5, §6, §7, §8, §9, §10, §11, §12, §13

The next assay relates to K. pneumonia NCTC 13439. The experiment in a line: General MIC protocol, Gram negative. Conditions: Klebsiella pneumoniae, NCTC13439; K. pneumonia NCTC 13439; read-out: MIC. The protocol: as §1, §2, §3, §4, §5, §6, §7, §8, §9, §10, §11, §12, §13
In the next assay the test system is WI38 (Healthy cell line). Put plainly: MTT cytotoxicity assay. Conditions: Homo sapiens, WI-38; MTT; 24 h continuous exposure; highest concentration tested 20 μM; read-out: IC50 WI38 (Healthy cell line). The protocol:
(§14) Two immortalised human cell lines, HeLa and WI38 were used for cytotoxicity screening of the compounds. HeLa is a human cervical cancer cell line and WI38 is a normal healthy cell line. The cell lines were obtained from the American Type Culture Collection. The cell-lines were maintained in monolayer culture in 75 cm2 flasks (TPP, Switzerland) under a humidified 5% CO2 atmosphere at 37° C. The HeLa cell line was maintained in Dulbecco's Modified Eagles Media (DMEM; Invitrogen) supplemented with foetal bovine serum (10% v/v; Invitrogen), L-glutamine (2 mM; Invitrogen), non-essential amino acids (1×; Invitrogen) and Penicillin-Streptomycin (1% v/v, Invitrogen). For WI38, Eagle's Minimum Essential Medium, and Penicillin-Streptomycin (1% v/v, Invitrogen) and foetal bovine serum (10%, nvitrogen) was used. For passaging, cells were washed with phosphate buffered saline [PBS] (GIBCO 14040, Invitrogen, UK), incubated with trypsine (GIBCO 25300, Invitrogen, UK), and re-seeded into fresh medium. For seeding, cells were counted using a Neubauer haemocytometer (Assistant, Germany) by microscopy (Nikon, USA) on a non-adherent suspension of cells that were washed in PBS, trypsinised, centrifuged at 8° C. at 8000 rpm for 5 min and re-suspended in fresh medium.
(§15) The cells were grown in normal cell culture conditions at 37° C. under a 5% CO2 humidified atmosphere using appropriate medium. The cell count was adjusted to 10^5 cells/ml/ and 20,000 cells were added per well. The cells were incubated for 24 hours and 1 μl of the appropriate inhibitor concentrations were to the wells in triplicates. After 24 h of continuous exposure to each compound, the cytotoxicity was determined using the MIT (3-(4,5-Dimethylthiazol-2-yl)-2,5-diphenyltetrazolium bromide) (Lancaster Synthesis Ltd, UK) colorimetric assay. Absorbance was quantified by spectrophotometry at λ=570 nm (Envision Plate Reader, PerkinElmer, USA). IC50 values were calculated by a dose-response analysis using the Prism Graphpad Prism® software. The cytotoxicity results are shown below in Table 12.
For orientation: Tetrazolium assays rely on reduction of a dye to a coloured formazan, in cell work by metabolically active cells.

In assay [1] the test system is HeLa (Cervical cancer cell line). The experiment in a line: MTT cytotoxicity assay. As to conditions: Homo sapiens, MTT, 24 h continuous exposure, read-out: IC50 HeLa (Cervical cancer cell line). On the procedure:
as §14, §15

In the next assay the test system is K. pneumonia M6. Put plainly: General MIC protocol, Gram negative. Conditions: Klebsiella pneumoniae; KP-M6. On the procedure: as §1, §2, §3, §4, §5, §6, §7, §8, §9, §10, §11, §12, §13
The next assay deals with A. baumannii AYE. Put plainly: General MIC protocol, Gram negative. Conditions: Acinetobacter baumannii. On the procedure:
as §1, §2, §3, §4, §5, §6, §7, §8, §9, §10, §11, §12, §13

For another assay, the system named is K. pneumonia NCTC 13368. Put plainly: General MIC protocol, Gram negative. Conditions: Klebsiella pneumoniae, NCTC13368. The protocol: as §1, §2, §3, §4, §5, §6, §7, §8, §9, §10, §11, §12, §13
Another assay relates to P. aeruginosa NCTC 13437. Put plainly: General MIC protocol, Gram negative. Conditions: Pseudomonas aeruginosa, NCTC13437. On the procedure: as §1, §2, §3, §4, §5, §6, §7, §8, §9, §10, §11, §12, §13
The next assay concerns A. baumannii NCTC 17978. Put plainly: General MIC protocol, Gram negative. Conditions: Acinetobacter baumannii, NCTC17978. On the procedure:
as §1, §2, §3, §4, §5, §6, §7, §8, §9, §10, §11, §12, §13

In another assay the test system is EMRSA-16. The experiment in a line: General MIC protocol, Gram positive panel. The protocol: as §1, §2, §3, §4, §5, §6, §7, §8, §9, §10, §11, §12, §13
Assay [2] deals with E. faecalis VRE NCTC 12201. The experiment in a line: General MIC protocol, Gram positive panel. The protocol:
as §1, §2, §3, §4, §5, §6, §7, §8, §9, §10, §11, §12, §13

The subject of assay [3] is E. faecium VRE NCTC 12204. Put plainly: General MIC protocol, Gram positive panel. The protocol: as §1, §2, §3, §4, §5, §6, §7, §8, §9, §10, §11, §12, §13
The subject of assay [4] is methicillin sensitive S. aureus ATTC 9144 (NCTC 6571). The experiment in a line: General MIC protocol, Gram positive panel. As to conditions: Staphylococcus aureus, MSSA / NCTC 6571; MSSA 9144. On the procedure: as §1, §2, §3, §4, §5, §6, §7, §8, §9, §10, §11, §12, §13
Another assay concerns EMRSA-15. The experiment in a line: General MIC protocol, Gram positive panel. The protocol: as §1, §2, §3, §4, §5, §6, §7, §8, §9, §10, §11, §12, §13
The next assay deals with E. faecalis VSE NCTC 775. The experiment in a line: General MIC protocol, Gram positive panel. As to conditions: Enterococcus faecalis, NCTC775; VSE 775. The protocol: as §1, §2, §3, §4, §5, §6, §7, §8, §9, §10, §11, §12, §13

Values after ≈ are worked out from the molar mass of the structure shown. Like-named read-outs stand apart in the source and are kept apart here.

In general, MIC refers to the least concentration at which growth counts as inhibited. Usually IC50 stands for the concentration needed to halve the response being measured.

Turning to `C[C@H]1COc2c(N3CCN(C)CC3)c(F)cc3c(=O)c(C(=O)O)cn1c23` [Levofloxacin, levofloxacin], the MIC with Klebsiella KP 342 was 0.5 to 1 µg/mL (≈ 1.38 to 2.77 µM); against Psueudomonas GH12, more than 16 µg/mL; in the assay on K. pneumonia NCTC 51851, more than 16 µg/mL; in the assay with K. pneumonia KP16 it was 8 to 16 µg/mL (≈ 22.1 to 44.3 µM); in the assay on P. aeruginosa PA01 (PA01, read-out: MIC), 4 µg/mL (≈ 11.1 µM); in the assay on K. pneumonia NCTC 13443, more than 16 µg/mL. Moreover, the MIC is 1 µg/mL (≈ 2.77 µM) with K. pneumonia MGH 78578, more than 16 µg/mL in the assay with K. pneumonia NCTC 13438 and 16 µg/mL (≈ 44.3 µM) in the assay with K. pneumonia NCTC 13439.

Take `COc1cc2c(cc1OCCCC(=O)Nc1cc(C(=O)Nc3ccc4oc(C(=O)N5CCCCC5)cc4c3)n(C)c1)N=C[C@@H]1CCCN1C2=O` [PP-B26, (S)-4-(4-((7-methoxy-5-oxo-2,3,5,11a-tetrahydro-1H-benzo-[e]pyrrolo[1,2-a][1,4]diazepin-8-yl)oxy)butanamido)-1-methyl-N-(2-(piperidine-1-carbonyl)benzofuran-5-yl)-1H-pyrrole-2-carboxamide]: the half-inhibitory concentration (IC50) (in the assay with WI38 (Healthy cell line); in assay [1]) was more than 20 µM throughout. The MIC against K. pneumonia M6 worked out at 8 µg/mL (≈ 11.8 µM); in the assay with A. baumannii AYE, 2 µg/mL (≈ 2.94 µM); against P. aeruginosa PA01 (PA01, PA01), 128 µg/mL (≈ 188 µM); in the assay with K. pneumonia NCTC 13368 it was 64 µg/mL (≈ 94 µM); against P. aeruginosa NCTC 13437, 32 µg/mL (≈ 47 µM); in the assay on A. baumannii NCTC 17978, 2 µg/mL (≈ 2.94 µM). Moreover, the MIC in the assay on EMRSA-16 was 0.5 µg/mL (≈ 0.734 µM); in assay [2], less than 0.125 µg/mL; in [3], less than 0.125 µg/mL; in [4], less than 0.125 µg/mL; in the assay on EMRSA-15, 0.25 µg/mL (≈ 0.367 µM); against E. faecalis VSE NCTC 775 it was 0.25 µg/mL (≈ 0.367 µM).

Source of the values: patent US10640507B2, “PBD antibacterial agents” (KING'S COLLEGE LONDON, priority 2015, dated 2020).
